This assay has as its target SAE (Homo sapiens (Human), UniProt Q9UBT2). The experiment in a line: In vitro inhibitory activity assay against SAE (SUMO-2/3 immunofluorescence in HCT116 cells). As to conditions: 6 h incubation, read-out: SUMO IF IC50. In kind it is cell-based. How it is done:
HCT116 cells were seeded into a 96-well black transparent bottom plate at about 20000/well with 90 μL per well. The cells were incubated at 37° C. overnight for 24 h. The test compounds were 10-fold diluted to give a final concentration, and 10 μL of the diluted compounds was added to each well of the cell culture plate. The mixture was incubated at 37° C. for 6 h. The cells were then washed gently, the culture medium was discarded, and the cells were washed once with 200 μL of 0.1% o PBST. 50 μL of 4% PFA was added to each well, and the cells were immobilized at room temperature for 20 min, and then washed with PBS 2-3 times. 50 μL of 0.2% o Triton X-100 was added to each well, and the cells were left to stand at room temperature for 15 min and washed with 0.1% PBST 3 times. 100 uL of 3% BSA (0.6 g BSA+20 mL PBS) was added to each well, and the mixture was blocked at 37° C. for 30 min. After the blocking was completed, the liquid was removed and a primary antibody (SUMO-2/3 (181H8) Rabbit mAb, 1:400 dilution) was prepared with […]. 30 μL of the diluted primary antibody was added to each well, and the mixture was incubated at 4° C. overnight. The cells were washed 3 times with 200 μL of 0.1% o PBST. A FITC secondary antibody (Fluorescein (FITC)-conjugated Affinipure Goat Anti-Rabbit IgG (H+L), 1:300 dilution) was further prepared with 1% o BSA, and 40 μL of the diluted secondary antibody was added to each well. The mixture was incubated at room temperature in the dark for 2 h, and then the cells were washed 4 times with 0.1% PBST. The fluorescence signal of the sample was detected and compared to the DMSO group, and the inhibition rate and IC50 were calculated.

pIC50: −log10 of the molar value. Where two headings read alike, the source gives them in different places. Bounds are passed on as bounds.

Chain of SAE (Q9UBT2 whole entry): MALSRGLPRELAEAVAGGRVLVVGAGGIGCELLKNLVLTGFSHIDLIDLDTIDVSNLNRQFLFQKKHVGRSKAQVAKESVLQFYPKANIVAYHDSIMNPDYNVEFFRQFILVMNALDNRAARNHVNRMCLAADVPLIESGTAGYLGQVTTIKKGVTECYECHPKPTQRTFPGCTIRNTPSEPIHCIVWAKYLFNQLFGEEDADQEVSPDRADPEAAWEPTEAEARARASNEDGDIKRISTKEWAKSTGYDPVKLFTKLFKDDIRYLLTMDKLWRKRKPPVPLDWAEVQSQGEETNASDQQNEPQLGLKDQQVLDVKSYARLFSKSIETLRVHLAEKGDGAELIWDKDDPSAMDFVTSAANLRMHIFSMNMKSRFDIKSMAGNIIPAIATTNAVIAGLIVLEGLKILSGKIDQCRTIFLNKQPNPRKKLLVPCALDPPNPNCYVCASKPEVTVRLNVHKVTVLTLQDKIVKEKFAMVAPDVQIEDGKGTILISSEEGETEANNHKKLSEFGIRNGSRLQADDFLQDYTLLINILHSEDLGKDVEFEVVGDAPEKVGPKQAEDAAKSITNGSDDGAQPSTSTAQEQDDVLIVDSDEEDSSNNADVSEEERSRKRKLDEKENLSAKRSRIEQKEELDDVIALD
Chain of SAE (Q9UBE0 whole entry partner): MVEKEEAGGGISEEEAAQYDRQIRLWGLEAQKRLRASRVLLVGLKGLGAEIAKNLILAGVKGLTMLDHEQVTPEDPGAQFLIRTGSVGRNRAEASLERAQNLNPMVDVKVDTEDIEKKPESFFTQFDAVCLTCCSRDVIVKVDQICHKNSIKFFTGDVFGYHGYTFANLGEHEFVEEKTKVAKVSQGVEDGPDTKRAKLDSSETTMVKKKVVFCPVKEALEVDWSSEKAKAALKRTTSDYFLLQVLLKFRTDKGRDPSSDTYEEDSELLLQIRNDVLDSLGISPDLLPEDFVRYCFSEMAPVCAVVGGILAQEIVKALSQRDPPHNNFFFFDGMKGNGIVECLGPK

Usually pIC50 stands for the negative decadic logarithm of the IC50, by convention in mol/L. Regarding `N#Cc1ccc2c(c1)[C@]1(CCc3sc(C(=O)c4cncnc4N[C@@H]4C[C@H](COS(N)(=O)=O)[C@@H](O)C4)cc31)NCC2` [Compound 53], the pIC50 (class symbols) is less than 6.70.

Consider `N#Cc1ccc2c(c1)[C@@]1(CCc3sc(C(=O)c4cncnc4N[C@@H]4C[C@H](COS(N)(=O)=O)[C@@H](O)C4)cc31)NCC2` [Compound 54], for which the pIC50 (class symbols) was 6.70 to 7.30. Take `NS(=O)(=O)OC[C@H]1C[C@@H](Nc2ncncc2C(=O)c2cc3c(s2)OCC32NCCc3ccccc32)C[C@@H]1O` (stereo partly shown) [Compound 55]: the pIC50 (class symbols) is less than 6.70. The same measure, in the same setting: for `NS(=O)(=O)OC[C@H]1C[C@@H](Nc2ncncc2C(=O)c2cc3c(s2)OC[C@@]32NCCc3ccccc32)C[C@@H]1O` [Compound 56] the value was less than 6.70; for `NS(=O)(=O)OC[C@H]1C[C@@H](Nc2ncncc2C(=O)c2cc3c(s2)OC[C@]32NCCc3ccccc32)C[C@@H]1O` [Compound 57], 6.70 to 7.30.

With `NS(=O)(=O)OC[C@H]1C[C@@H](Nc2ncncc2C(=O)c2cc3c(s2)OCC32NCCc3ccc(F)cc32)C[C@@H]1O` (stereo partly shown) [Compound 58], the negative logarithm of the IC50 (pIC50) (class symbols) is less than 6.70. On the same count and under the same terms, for `NS(=O)(=O)OC[C@H]1C[C@@H](Nc2ncncc2C(=O)c2cc3c(s2)OC[C@@]32NCCc3ccc(F)cc32)C[C@@H]1O` [Compound 59] the value was less than 6.70. Turning to `NS(=O)(=O)OC[C@H]1C[C@@H](Nc2ncncc2C(=O)c2cc3c(s2)OC[C@]32NCCc3ccc(F)cc32)C[C@@H]1O` [Compound 60], the pIC50 (class symbols) is 6.70 to 7.30. On the same count and under the same terms, for `NS(=O)(=O)OC[C@H]1C[C@@H](Nc2ncncc2C(=O)c2cc3c(s2)OCC32NCCc3ccc(Cl)cc32)C[C@@H]1O` (stereo partly shown) [Compound 61] the value was 6.70 to 7.30. On the same count and under the same terms, then `NS(=O)(=O)OC[C@H]1C[C@@H](Nc2ncncc2C(=O)c2cc3c(s2)OC[C@@]32NCCc3ccc(Cl)cc32)C[C@@H]1O` [Compound 62], with less than 6.70; and `NS(=O)(=O)OC[C@H]1C[C@@H](Nc2ncncc2C(=O)c2cc3c(s2)OC[C@]32NCCc3ccc(Cl)cc32)C[C@@H]1O` [Compound 63], with 6.70 to 7.30. On to `Cc1ccc2c(c1)C1(CCc3sc(C(=O)c4cncnc4N[C@@H]4C[C@H](COS(N)(=O)=O)[C@@H](O)C4)cc31)NCC2` (stereo partly shown) [Compound 64], for which the pIC50 (class symbols) is 6.70 to 7.30.

As to `NS(=O)(=O)OC[C@H]1C[C@@H](Nc2ncncc2C(=O)c2cc3c(s2)CCC32NCCc3ccc(C4CC4)cc32)C[C@@H]1O` (stereo partly shown) [Compound 65], the pIC50 (class symbols) was 6.70 to 7.30. On the same count and under the same terms, then `COc1ccc2c(c1)C1(CCc3sc(C(=O)c4cncnc4N[C@@H]4C[C@H](COS(N)(=O)=O)[C@@H](O)C4)cc31)NCC2` (stereo partly shown) [Compound 66], with less than 6.70; and `NS(=O)(=O)OC[C@H]1C[C@@H](Nc2ncncc2C(=O)c2cc3c(s2)CCC32NCCc3ccc(C(F)(F)F)cc32)C[C@@H]1O` (stereo partly shown) [Compound 67], with 6.70 to 7.30; and `NS(=O)(=O)OC[C@H]1C[C@@H](Nc2ncncc2C(=O)c2cc3c(s2)CCC32NCCc3cc(F)c(F)cc32)C[C@@H]1O` (stereo partly shown) [Compound 68], with 6.70 to 7.30. The same measure, in the same setting: for `NS(=O)(=O)OC[C@H]1C[C@@H](Nc2ncncc2C(=O)c2cc3c(s2)CCC32NCCc3cc(F)c(Cl)cc32)C[C@@H]1O` (stereo partly shown) [Compound 69] the value was no less than 7.30; for `NS(=O)(=O)OC[C@H]1C[C@@H](Nc2ncncc2C(=O)c2cc3c(s2)CCC32NCCc3cc(Cl)c(Cl)cc32)C[C@@H]1O` (stereo partly shown) [Compound 70], 6.70 to 7.30; for `Cc1cc2c(cc1Cl)C1(CCc3sc(C(=O)c4cncnc4N[C@@H]4C[C@H](COS(N)(=O)=O)[C@@H](O)C4)cc31)NCC2` (stereo partly shown) [Compound 71], 6.70 to 7.30.

Regarding `N#Cc1cc2c(cc1Cl)C1(CCc3sc(C(=O)c4cncnc4N[C@@H]4C[C@H](COS(N)(=O)=O)[C@@H](O)C4)cc31)NCC2` (stereo partly shown) [Compound 72], the pIC50 (class symbols) is 6.70 to 7.30. Still for that read-out and setting: then `COc1cc2c(cc1Cl)C1(CCc3sc(C(=O)c4cncnc4N[C@@H]4C[C@H](COS(N)(=O)=O)[C@@H](O)C4)cc31)NCC2` (stereo partly shown) [Compound 73], with 6.70 to 7.30; and `NS(=O)(=O)OC[C@H]1C[C@@H](Nc2ncncc2C(=O)c2cc3c(s2)CCC32NCCc3cc(F)c(Cl)c(F)c32)C[C@@H]1O` (stereo partly shown) [Compound 74], with 6.70 to 7.30; and `NS(=O)(=O)OC[C@H]1C[C@@H](Nc2ncncc2C(=O)c2cc3c(s2)CCC32NCCc3cc(Cl)c(F)cc32)C[C@@H]1O` (stereo partly shown) [Compound 75], with 6.70 to 7.30. Take `NS(=O)(=O)OC[C@H]1C[C@@H](Nc2ncncc2C(=O)c2cc3c(s2)CCC32NCCc3ccncc32)C[C@@H]1O` (stereo partly shown) [Compound 76]: the negative-log IC50 (pIC50) (class symbols) is 6.70 to 7.30.

As for `NS(=O)(=O)OC[C@H]1C[C@@H](Nc2ncncc2C(=O)c2cc3c(s2)CCC32NCCc3cc(Cl)ncc32)C[C@@H]1O` (stereo partly shown) [Compound 77], for the setting “class symbols”, the pIC50 is 6.70 to 7.30. For the compound `NS(=O)(=O)OC[C@H]1C[C@@H](Nc2ncncc2C(=O)c2cc3c(s2)C=CC32NCCc3ccc(Cl)cc32)C[C@@H]1O` (stereo partly shown) [Compound 78], the pIC50 (class symbols) is no less than 7.30. `NS(=O)(=O)OC[C@H]1C[C@@H](Nc2ncncc2C(=O)c2cc3c(s2)C=CC32NCCc3ccc(F)cc32)C[C@@H]1O` (stereo partly shown) [Compound 79]: the pIC50 (class symbols) was 6.70 to 7.30. The same measure, in the same setting: then `NS(=O)(=O)OC[C@H]1C[C@@H](Nc2ncncc2C(=O)c2cc3c(s2)COC32NCCc3ccc(Cl)cc32)C[C@@H]1O` (stereo partly shown) [Compound 80], with 6.70 to 7.30.

As for `NS(=O)(=O)OC[C@H]1C[C@@H](Nc2ncncc2C(=O)c2cc3c(s2)CCC32NCC3(CC3)c3ccc(Cl)cc32)C[C@@H]1O` (stereo partly shown) [Compound 81], the pIC50 (class symbols) was 6.70 to 7.30. Take `NS(=O)(=O)OC[C@H]1C[C@@H](Nc2ncncc2C(=O)c2cc3c(s2)CCC32NC3(CC3)Cc3ccc(Cl)cc32)C[C@@H]1O` (stereo partly shown) [Compound 82]: the pIC50 (class symbols) was 6.70 to 7.30.

As for `NS(=O)(=O)OC[C@H]1C[C@@H](Nc2ncncc2C(=O)c2cc3c(s2)CCC32NCC(=O)c3ccc(Cl)cc32)C[C@@H]1O` (stereo partly shown) [Compound 83], the negative-log IC50 (pIC50) (class symbols) is 6.70 to 7.30. For the compound `NS(=O)(=O)OC[C@H]1C[C@@H](Nc2ncncc2C(=O)c2cc3c(s2)CCC32OCCc3ccc(Cl)cc32)C[C@@H]1O` (stereo partly shown) [Compound 84], the pIC50 (class symbols) is no less than 7.30. For the compound `NS(=O)(=O)OC[C@H]1C[C@@H](Nc2ncncc2C(=O)c2cc3c(s2)CSCC32NCCc3ccccc32)C[C@@H]1O` (stereo partly shown) [Compound 85], the negative logarithm of the IC50 (pIC50) (class symbols) was less than 6.70. Same read-out and setting: then `NS(=O)(=O)OC[C@H]1C[C@@H](Nc2ncncc2C(=O)c2cc3c(s2)CSC[C@@]32NCCc3ccccc32)C[C@@H]1O` [Compound 86], with less than 6.70; and `NS(=O)(=O)OC[C@H]1C[C@@H](Nc2ncncc2C(=O)c2cc3c(s2)CSC[C@]32NCCc3ccccc32)C[C@@H]1O` [Compound 87], with 6.70 to 7.30.

Turning to `NS(=O)(=O)OC[C@H]1C[C@@H](Nc2ncncc2C(=O)c2cc3c(s2)CSCC32NCCc3ccc(F)cc32)C[C@@H]1O` (stereo partly shown) [Compound 88], where the note is “class symbols”, the pIC50 was no less than 7.30. Take `NS(=O)(=O)OC[C@H]1C[C@@H](Nc2ncncc2C(=O)c2cc3c(s2)CSC[C@@]32NCCc3ccc(F)cc32)C[C@@H]1O` [Compound 89]: the pIC50 (class symbols) was less than 6.70. Regarding `NS(=O)(=O)OC[C@H]1C[C@@H](Nc2ncncc2C(=O)c2cc3c(s2)CSC[C@]32NCCc3ccc(F)cc32)C[C@@H]1O` [Compound 90], the pIC50 (class symbols) is no less than 7.30.

As to `NS(=O)(=O)OC[C@H]1C[C@@H](Nc2ncncc2C(=O)c2cc3c(s2)CSCC32NCCc3ccc(Cl)cc32)C[C@@H]1O` (stereo partly shown) [Compound 91], the pIC50 (class symbols) is no less than 7.30.

For the compound `NS(=O)(=O)OC[C@H]1C[C@@H](Nc2ncncc2C(=O)c2cc3c(s2)CSC[C@@]32NCCc3ccc(Cl)cc32)C[C@@H]1O` [Compound 92], the pIC50 (numeric values) was less than 6.00.

The values above are taken from patent US20260035382A1, “COMPOUNDS AS SUMO ACTIVATING ENZYME INHIBITORS” (WIGEN BIOMEDICINE TECHNOLOGY (SHANGHAI) CO., LTD., priority 2022, published 2026).
